Calls of active or inactive are those of the source. No cut-off for these calls is given here.

A short description of series [1]: Cellular uptake in human SK-MEL-23 cells assessed as boron content at 50 uM relative to control. The class given is ADME, cell-based.
The nature of series [2]: Cellular uptake in human SK-MEL-23 cells assessed as boron content at 50 uM after 6 hrs relative to control. Type of series: ADME, cell-based.
A short description of series [3]: Cytotoxicity against human SK-MEL-23 cells assessed as LDH release up to 100 uM after 6 hrs by colorimetric assay. The class given is functional. Background: Release of lactate dehydrogenase indicates damage to the cell membrane.
The nature of series [4]: Cellular uptake in human SK-MEL-23 cells assessed as boron content at 50 uM after 2 hrs relative to control. Type of series: ADME, cell-based.
Series [5] relates to MCF7. The series is described as follows: Cytotoxicity against human MCF7 cells assessed as LDH release up to 100 uM after 6 hrs by colorimetric assay. The class given is functional.
Series [6] addresses T1, Tyrosinase (Agaricus bisporus) (UniProt O42713).
T1 sequence (whole entry): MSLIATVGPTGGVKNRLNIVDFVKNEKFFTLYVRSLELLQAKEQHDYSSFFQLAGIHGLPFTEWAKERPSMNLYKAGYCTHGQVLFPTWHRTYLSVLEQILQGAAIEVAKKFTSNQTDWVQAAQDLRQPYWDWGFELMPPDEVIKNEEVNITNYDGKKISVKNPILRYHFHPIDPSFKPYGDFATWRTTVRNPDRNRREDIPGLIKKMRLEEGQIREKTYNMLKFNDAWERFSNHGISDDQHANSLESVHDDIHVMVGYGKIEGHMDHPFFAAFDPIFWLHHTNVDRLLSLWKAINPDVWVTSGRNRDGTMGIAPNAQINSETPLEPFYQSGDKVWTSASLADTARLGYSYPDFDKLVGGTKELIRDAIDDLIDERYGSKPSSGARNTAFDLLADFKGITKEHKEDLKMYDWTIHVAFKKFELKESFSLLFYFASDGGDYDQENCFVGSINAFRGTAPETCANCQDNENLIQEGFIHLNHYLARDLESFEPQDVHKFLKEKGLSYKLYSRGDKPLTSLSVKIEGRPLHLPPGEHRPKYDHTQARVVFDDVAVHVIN
The series can be described thus: Binding affinity to mushroom tyrosinase assessed as […].

`O=C1O[B-]2([NH2+][C@H]1Cc1ccc(O)cc1)C1CCCC2CCC1` (some centres undefined): the Activity entry in series [1] is recorded as “Not Active”; in series [2] it was above 50%; in series [3], below 5%; in series [4], 50%; in series [5], below 5%. In addition, in series [6], the result was Active.

Consider `O=C1O[B-]2([NH2+][C@H]1Cc1ccc(O)c(O)c1)C1CCCC2CCC1` (some centres undefined), for which, in series [6], the result was Active.

As for `O=C1O[B-]2([NH2+][C@H]1Cc1ccccc1)C1CCCC2CCC1` (some centres undefined), the outcome in series [6] was inactive.

For the molecule `O=C1O[B-]2([NH2+][C@H]1Cc1c[nH]c3ccc(O)cc13)C1CCCC2CCC1` (some centres undefined), the result in series [6] was inactive.

The values are drawn from ChEMBL document CHEMBL1140175, “Synthesis and evaluation of novel boron-containing complexes of potential use for the selective treatment of malignant melanoma” (J Med Chem, 2008).
